Literature values in patent publication US20110046204A1, “Human Zip1, Zinc and Citrate for Prostate Cancer Screening” (University of Maryland, Balitmore, priority 2006, published 2011).

Conditions: zinc-indicator dye TSQ; read-out: affinity for zinc (Kd)

Kd: ~10 nM
SMILES: COc1cc(NS(=O)(=O)c2ccc(C)cc2)c2ncccc2c1 [TSQ]
